Laboratory results reported in article PMC12203697, “Bioactive constituents from the edible seaweed Halymenia hawaiiana (Rhodophyta)” (Pharmaceutical Biology, 2025).
Converted amounts (≈) assume the structure as drawn. Like-named read-outs stand apart in the source and are kept apart here.

Key:
MRSA HBP10 = assay: Antibacterial MIC, broth microdilution with resazurin; format: cell-based, Staphylococcus aureus; conditions: MRSA HBP10, Gram-positive
Text: (§1) Methicillin-resistant Staphylococcus aureus (MRSA), methicillin-susceptible S. aureus (MSSA), and Gram-negative clinical isolates of bacteria [Escherichia coli (9637) and Serratia marcescens ATCC 13880] were used for this study. […] MSSA HBP10, MSSA LUU7, MSSA R113, S. aureus ONE9, and MSSA POB2 were isolated in Hawaiʻi (Gerken et al. [2021]). Mueller Hinton Broth (MHB, GTIN:00382902979630, Becton, Dickinson and Company, Franklin Lakes, NJ, USA) and Mueller Hinton Agar (MHA, GTIN:00382902252504, Becton, Dickinson and Company, Franklin Lakes, NJ, USA,) were used for bacterial inoculation. MRSA was a pathogen strain causing hospital-acquired infections in 1982. This strain easily acquires resistance to antibiotics, such as vancomycin. MSSA strains isolated from the Island of Hawaiʻi included: Honolʻii Beach Park (HBP10) carry the genes erm(C), aph(3′)-III, and mecA, which provide resistance to macrolide, aminoglycoside, and beta-lactam antibiotics, respectively; Wailuku River (LUU7) which contains the blaZ gene (beta-lactam resistance) (Gerken et al. [2021]). Richardson’s Beach Park (R113) and Onekahakaha (ONE9) which is known for its virulence factors (hlgA, hlgB, hlgC, lukD, and lukE).
(§2) The minimum inhibitory concentrations (MICs) were determined using a two-fold serial dilution method with MHB following the recommendations of the Clinical and Laboratory Standards Institute (CLSI [2012]; Elshikh et al. [2016]). In brief, serial two-fold dilutions of the samples in DMSO were mixed with MHB in a 96-well microplate. Then, 50 µL of bacteria suspension was added to each well, resulting in a final concentration of 1 × 10^4 colony-forming units/well. The plates were incubated at 35–37 °C for 18–24 hr. After incubation, 10 µL of 0.18% resazurin (Cat. No. R7017, Sigma-Aldrich, USA) was added to each well (Elshikh et al. [2016]). The MIC was assessed within 2–3 hr after the addition of resazurin. All antimicrobial assays were performed in triplicate, using vancomycin (Cat. No. SBR00001, Sigma-Aldrich, USA) and gentamicin (Cat. No. G1397, Sigma-Aldrich, USA) as standard controls.

MRSA POB2 = assay: as above; format: cell-based, Staphylococcus aureus; conditions: Staphylococcus aureus; MRSA POB2, Gram-positive; read-out: MIC
Text: as §1, §2

S. aureus NEWMAN = assay: as above; format: cell-based, Staphylococcus aureus; conditions: S. aureus NEWMAN, Gram-positive
Text: as §1, §2

[1] = SRB cytotoxicity assay, NIH/3T3 cells; format: cell-based, murine; conditions: mouse, NIH/3T3 fibroblasts (non-tumorigenic)
Text: (§3) OD0 = Optical density of cells before treatment (baseline reading).

[2] = test system: A549 human lung carcinoma epithelial cells; assay: SRB cytotoxicity assay, A549 cells; conditions: for Selectivity Index (SI): A549 (cancerous) versus NIH/3T3 (non-cancerous), SRB 72 h; for IC50: Homo sapiens, A549, 72 h, read-out: IC50, cytotoxicity against A549 cells
Protocol: After incubation, cells were fixed with trichloroacetic acid (Cat. No. T4885, Sigma-Aldrich, USA), stained with SRB (Cat. No. S9012, Sigma-Aldrich, USA), and the absorbance was measured at 515 nm. Percent cell death was calculated using the following equation: % Cell death=(ODc−OD0)‐(ODs−OD0)/(ODc−OD0)×100
as §3
ODC = Optical density of untreated control cells after 72 h.
ODS = Optical density of cells treated with the test sample after 72 h.
Non-linear regression analysis was performed using GraphPad Prism to calculate the IC50 value. This value reflects the concentration needed to inhibit cell growth by 50%.
All data are presented as mean ± standard error of the mean (SEM) and were collected from three separate experiments. Statistical analyses were conducted using Student’s t-test or ANOVA, followed by Tukey’s multiple comparisons test. Significance is indicated by *p < 0.05, **p < 0.01, and ***p < 0.001.

[3] = test system: LPS-induced nitric oxide (NO) production in RAW 264.7 cells; assay: Inhibition of NO generation in LPS-induced RAW 264.7 cells (Griess); format: cell-based, murine; conditions: for IC50: Mus musculus
Protocol: The nitrite concentration in the culture medium was measured to indicate nitric oxide (NO) production as previously described (Min et al. [2009]). The murine macrophage RAW 264.7 cell line was obtained from ATCC, Manassas, VA, USA, and maintained in Dulbecco’s modified Eagle’s medium supplemented with 10% heat-inactivated FBS (Cat. No. A5670801, Gibco BRL Co, Grand Island, NY, USA), penicillin G (100 units/mL) (Cat. No. P7794, Sigma-Aldrich, USA), streptomycin (100 µg/mL) (Cat. No. S9137, Sigma-Aldrich, USA), and L-glutamine (2 mM) (Cat. No. 25030081, Gibco BRL Co, Grand Island, NY, USA). In brief, RAW 264.7 cells were seeded at a density of 4 × 10^4 cells/well in phenol red-free media (Cat. No. 11835030, Gibco, USA) in a 96-well plate, and incubated in a humidified incubator with 5% CO2 at 37 °C for 24 hr. […] The concentration of nitric oxide production was assessed using the Griess reagent, which consists of a 1:1 (v/v) mixture of 1% sulfanilamide (Cat No. A13001, Alfa Aesar, Massachusetts, USA) in H3PO4 and N-(1-naphthyl)ethylenediamine dihydrochloride (Cat. No. 102397, MP Biomedicals, USA). Absorbance was recorded with a microplate reader (SynergyMx, BioTeK, Winooski, VT, USA) at 540 nm. A standard curve was created using sodium nitrite (1–100 μM) (Cat. No. 44227, Alfa Aesar, Massachusetts, USA). A sulforhodamine B (SRB) assay was employed to assess the cellular viability of the samples with RAW 264.7 cells under a similar experimental setup. The final % inhibition of NO production was adjusted based on cell viability.

S. aureus 8325-4 = assay: Antibacterial MIC, broth microdilution with resazurin; format: cell-based; conditions: Staphylococcus aureus, 83254; S. aureus 8325-4, Gram-positive; read-out: MIC
Text: as §1, §2

E. coli = assay: as above; format: cell-based; conditions: Escherichia coli, Gram-negative
Text: as §1, §2

MRSA USA300 = assay: as above; format: cell-based; conditions: Staphylococcus aureus; MRSA USA300, Gram-positive; read-out: MIC
Text: as §1, §2

MSSA LUU7 = assay: as above; format: cell-based; conditions: Staphylococcus aureus; MSSA LUU7, Gram-positive; read-out: MIC
Text: as §1, §2

[4] = Staphylococcus aureus, read-out: MIC

Compound	MIC (MRSA HBP10)	MIC (MRSA HBP10; [4])	MIC (MRSA POB2)	MIC (S. aureus NEWMAN)	MIC (S. aureus NEWMAN; [4])	IC50 at 72 h [1]	Selectivity Index (SI) [2]	IC50 [2]	IC50 ([3]; RAW264.7, read-out: IC50, inhibition of LPS-induced NO production)	inhibition of NO production at 5 µg/ml (in words) ([3]; RAW 264.7 cells, LPS-induced)	MIC (S. aureus 8325-4)	MIC (E. coli)	MIC (MRSA USA300)	MIC (MSSA LUU7)	cytotoxic response against A549 cells (in words) ([2]; SRB assay, 72 h, highest concentration tested 100 µg/ml)	NO inhibitory activity (in words) ([3]; RAW 264.7 cells, LPS-induced, highest concentration 50 μg/mL)	IC50 ([3]; RAW264.7, RAW 264.7 cells, LPS 1 μg/mL, adjusted for cell viability, read-out: IC50, inhibition of LPS-induced NO production)
CC(C)CCC[C@@H](C)[C@H]1CCC2[C@@]34C=C[C@]5(C[C@@H](O)CC[C@]5(C)C3CC[C@@]21C)OO4 (some centres unmarked) [Compound 10, 7-dehydrochoresterol peroxide]	32 µg/mL (≈ 76.8 µM)	32 µg/mL (≈ 76.8 µM)	128 µg/mL (≈ 307 µM)	8 µg/mL (≈ 19.2 µM)	8 µg/mL (≈ 19.2 µM)	96.6 ± 4.34 µM	1.12	86.1 µM	53.6 ± 2.3 µM	significant (p > 0.001) inhibition	128 µg/mL (≈ 307 µM)	128 µg/mL (≈ 307 µM)	128 µg/mL (≈ 307 µM)	128 µg/mL (≈ 307 µM)			
CC(C)CCC[C@@H](C)[C@H]1CCC2[C@]1(C)CC=C1[C@]23C=C[C@]2(C[C@@H](O)CC[C@]12C)OO3 (stereo partly drawn) [Compound 11, (3β-5α-8α)5,8-epidioxycholesta-6,9(1)-diene-3-ol]	64 µg/mL (≈ 154 µM)	64 µg/mL (≈ 154 µM)	128 µg/mL (≈ 309 µM)	8 µg/mL (≈ 19.3 µM)	8 µg/mL (≈ 19.3 µM)	144 ± 6.15 µM	1.05	137 ± 4.4 µM			128 µg/mL (≈ 309 µM)	128 µg/mL (≈ 309 µM)	128 µg/mL (≈ 309 µM)	128 µg/mL (≈ 309 µM)			
Nc1ccn([C@H]2C[C@H](O)[C@@H](CO)O2)c(=O)n1 [Compound 1, deoxycytidine]		128 µg/mL (≈ 563 µM)	128 µg/mL (≈ 563 µM)		128 µg/mL (≈ 563 µM)						128 µg/mL (≈ 563 µM)	128 µg/mL (≈ 563 µM)	128 µg/mL (≈ 563 µM)	128 µg/mL (≈ 563 µM)	no cytotoxic response	no significant NO inhibitory activity	
CC(C)CCC[C@@H](C)[C@H]1CC[C@H]2[C@@H]3CC=C4C[C@@H](O)CC[C@]4(C)[C@H]3CC[C@]12C [Compound 9, cholesterol]		128 µg/mL (≈ 331 µM)	128 µg/mL (≈ 331 µM)		64 µg/mL (≈ 166 µM)	181 ± 8.04 µM	1.03	176 ± 5.3 µM		significant (p > 0.001) inhibition	128 µg/mL (≈ 331 µM)	128 µg/mL (≈ 331 µM)	128 µg/mL (≈ 331 µM)	128 µg/mL (≈ 331 µM)			50.2 ± 2.2 µM
